In patent EP2687213B1, “Solid forms comprising (+)-2-[1-(3-ethoxy-4-methoxyphenyl)-2-methylsulfonylethyl]-4-acetylaminoisoindoline-1,3-dione, compositions thereof, and uses thereof” (CELGENE CORPORATION, priority 2008, dated 2009):
“Also recorded” adds a separate entry of the source.

Experiments:
[1] = Solid form stability studies (XRPD); assay type: physicochemical
Experimental: Stability Studies. The stabilities of Forms A, B, C and D were studied by exposing the solid samples to the stress condition of 40 °C / 75% RH for four weeks. Moreover, the stabilities of Forms A, B, C and D in different solvents were studied by equilibration in different solvents at 40 °C for four weeks. The slurries then were filtered and dried in the air. Solid samples obtained from the stability experiments were analyzed by XRPD and DSC.

[2] = Solid form interconversion studies (slurry, XRPD); assay type: physicochemical; conditions: EQ in acetone:ethanol (1:1) at 25 °C, at least 2 days
Experimental: Interconversion Studies. Interconversion experiments were performed by making slurries of a solid form in a saturated solvent. The slurries were agitated for at least 2 days at about 25 °C. The saturated solution was removed by filtration and the solid was dried in the air.

[3] = Hygroscopicity studies (DVS moisture sorption/desorption); assay type: physicochemical; conditions: for solid-state transformation after full adsorption/desorption cycle (XRPD): DVS, 0% to 95% RH and back; for mass change of the starting mass of the sample: RH increased from about 0% to about 95% RH, about 25 °C; for hygroscopicity: moisture sorption analysis, 0% to 95% RH
Experimental: Hygroscopicity studies. The hygroscopicity of various solid forms was studied using a Surface Measurement Systems DVS instrument. Typically a sample size of between about 10-50 mg was loaded into the DVS instrument sample pan and the sample was analyzed on a DVS automated sorption analyzer at about 25 °C. The relative humidity was increased in increments of about 10% from about 0% to about 95% RH. The relative humidity was then decreased in a similar manner to accomplish a full adsorption/desorption cycle. The mass was recorded at periodic intervals throughout the experiment.

[4] = Compression studies (2000 psi, XRPD); conditions: 2000 psi for at least one minute
[5] = EQ in ethanol at 40 °C for 4 weeks
[6] = EQ in heptane at 40 °C for 4 weeks
[7] = EQ in toluene at 40 °C for 4 weeks
[8] = EQ in water at 40 °C for 4 weeks

Row | Compound | Analysis by XRPD (resulting form) ([1]; 40 °C / 75% RH, 4 weeks) | Analysis by XRPD (resulting form) [1, 5] | Analysis by XRPD (resulting form) [1, 6] | Analysis by XRPD (resulting form) [1, 7] | Analysis by XRPD (resulting form) [1, 8] | Analysis by XRPD (resulting form) [2] | solid-state transformation after full adsorption/desorption cycle (XRPD) [3] | mass change of the starting mass of the sample [3] | hygroscopicity [3] | physical stability upon compression (XRPD) [4]
1 | CCOc1cc(C(CS(C)(=O)=O)N2C(=O)c3cccc(NC(C)=O)c3C2=O)ccc1OC (single isomer, unassigned; (+)) [Form A, (+)-2-[1-(3-ethoxy-4-methoxyphenyl)-2-methylsulfonylethyl]-4-acetylaminoisoindoline-1,3-dione] | stable | stable | stable | converts to Form C | stable | Form B | none of the forms analyzed underwent substantial solid-state transformation | about 0.4% | substantially nonhygroscopic | substantially physically stable
2 | CCOc1cc(C(CS(C)(=O)=O)N2C(=O)c3cccc(NC(C)=O)c3C2=O)ccc1OC (single isomer, unassigned; (+)) [Form B, (+)-2-[1-(3-ethoxy-4-methoxyphenyl)-2-methylsulfonylethyl]-4-acetylaminoisoindoline-1,3-dione] | stable | stable | stable | converts to Form C | stable |  | none of the forms analyzed underwent substantial solid-state transformation | about 0.6% | substantially nonhygroscopic | substantially physically stable
3 | CCOc1cc(C(CS(C)(=O)=O)N2C(=O)c3cccc(NC(C)=O)c3C2=O)ccc1OC (single isomer, unassigned; (+)) [Form C, (+)-2-[1-(3-ethoxy-4-methoxyphenyl)-2-methylsulfonylethyl]-4-acetylaminoisoindoline-1,3-dione] | stable | stable | stable | stable | stable | Form C | none of the forms analyzed underwent substantial solid-state transformation | about 0.5% | substantially nonhygroscopic | substantially physically stable
4 | CCOc1cc(C(CS(C)(=O)=O)N2C(=O)c3cccc(NC(C)=O)c3C2=O)ccc1OC (single isomer, unassigned; (+)) [Form E, (+)-2-[1-(3-ethoxy-4-methoxyphenyl)-2-methylsulfonylethyl]-4-acetylaminoisoindoline-1,3-dione] |  |  |  |  |  | Form B | none of the forms analyzed underwent substantial solid-state transformation | about 5.1% | hygroscopic | 
5 | CCOc1cc(C(CS(C)(=O)=O)N2C(=O)c3cccc(NC(C)=O)c3C2=O)ccc1OC (single isomer, unassigned; (+)) [Form F, (+)-2-[1-(3-ethoxy-4-methoxyphenyl)-2-methylsulfonylethyl]-4-acetylaminoisoindoline-1,3-dione] |  |  |  |  |  | stable; also recorded: Form F | none of the forms analyzed underwent substantial solid-state transformation | about 0.2% | substantially nonhygroscopic | 
6 | CCOc1cc(C(CS(C)(=O)=O)N2C(=O)c3cccc(NC(C)=O)c3C2=O)ccc1OC (single isomer, unassigned; (+)) [Form G, (+)-2-[1-(3-ethoxy-4-methoxyphenyl)-2-methylsulfonylethyl]-4-acetylaminoisoindoline-1,3-dione] |  |  |  |  |  | converts to Form B | none of the forms analyzed underwent substantial solid-state transformation | about 0.4% | substantially nonhygroscopic | 
